The source of these data is patent US11213560B2, “Method of promoting wound healing with sinetirucallol” (NATIONAL DONG HWA UNIVERSITY, priority 2015, dated 2022).

The test system of data set [1] is RAW 264.7 cells. Kind of data set: MTT cell viability of RAW264.7 cells (Example 2). Type of data set: cell-based, murine. Particulars: extract 5, 20, 50, 100 μg/mL or sinetirucallol 0.1, 1, 5, 10 μM for 24 h. The protocol: (§1) The RAW264.7 murine macrophage cell line was purchased from the Bioresource Collection and Research Center (BCRC, Taiwan). The cells were incubated at 37° C. in 5% CO2 in Dulbecco's modified Eagle's medium (DMEM; Gibco Inc., NY, USA) supplemented with 100 U/mL penicillin, 100 μg/mL sodium pyruvate and 10% fetal bovine serum (FBS; Gibco Inc.).
In order to examine the bio-compatibility of the extract of the present disclosed composition, a MTT assay (3-(4,5-dimethylthiazol-2-yl)-2,5-diphenyltetrazolium bromide (MTT, Invitrogen), a colorimetric based assay) was performed.
Briefly, 8×10^3 of cells per well were seeded in 96-well plates and were incubated in 5% CO2 at 37° C. for overnight. Cells were treated different concentrations (5, 20, 50, and 100 μg/mL) of Spiranthes sinensis extract for 24 h, after incubation 20 μL (5 mg/mL) of MTT solution was added per well and further incubated for 4 h. The media was removed, and formazan was solubilized by adding 100 μl/well of DMSO (Sigma-Aldrich) and OD was measured at 570 nm using a microplate reader (ELISA reader, Thermo Labsystems). Percentage of viable cells was estimated by comparing with untreated control cells. The average absorbance value of the control cells was taken as 100% viability.

The subject of data set [2] is CFA-induced inflammation mice. The data set can be described thus: CFA-induced paw inflammation in mice, swelling index. Type of data set: in vivo, C57BL/6 mice.
For data set [3], the system named is LPS-induced RAW 264.7 cells. The data set can be described thus: Real-time PCR of inflammatory cytokine transcription in LPS-induced RAW 264.7 cells. Type of data set: cell-based, murine. To be noted: LPS 1 μg/mL; 5 μM SI (tested 0.1, 1, 5, 10 μM). The method, then:
as §1
The cells were also treated with 0.01% DMSO as a vehicle control. The cells were seeded into 12-well plates at a density of 6×10^5 cells/well in 24 h then incubated with 0.1% BSA with serum-free medium 3 h, treated with different concentrations of Spiranthes sinensis extract or SI then incubated in the presence of LPS (1 μg/mL) for 4 h.
Total RNA was prepared from freshly harvested RAW 264.7 cells and was isolated using Trizol extraction. RNA samples were frozen at −80° C. until analyzed. cDNA was then made using an M-MLV RT kit (Invitrogen, Carlsbad, Calif.) according to the manufacturer's protocol. The expression of selected cytokine and related genes in mouse tissue and in RAW264.7 cells exposed to the present Spiranthes sinensis extract was determined by the SensiFAST SYBR No-ROX Kit (BIOLINE, London, UK), as described previously. PCR cycling conditions for TNF-Alpha included a 95° C. heating step for 2 min at the beginning of every run. […] In order to quantify expression represented by each of the PCR products, an internal reference by β-actin.

The subject of data set [4] is COX-2. Kind of data set: Western blot of COX-2 in LPS-induced RAW264.7 cells. It is filed as cell-based, murine. Particulars: LPS 1 μg/mL, 12 h; extract 5-100 μg/mL or SI 0.1-10 μM; dose-dependent manner. The method, then: as §1
(§2) The cells were also treated with 0.01% DMSO as a vehicle control. The cells were seeded into 12-well plates at a density of 6×10^5 cells/well in 24 h then incubated with 0.1% BSA with serum-free medium 3 h, treated with […]
(§3) The concentrations of proteins from whole-cell lysates were determined by Bradford assay. Equal amounts of protein were separated by SDS-PAGE and transferred onto nitrocellulose membranes. […] With the use of horseradish peroxidase-conjugated secondary anti-rabbit or anti-mouse antibody, bound antibodies were detected by enhanced chemiluminescence. The signals were monitored using Western Lightning™ Plus-ECL (Perkin Elmer Life Sciences) and the PVDF membrane was exposed to Luminescent image analyzer LAS-3000 (Fujifilm, Minato, Tokyo, Japan). Acquired data were analyzed and compared the difference among treatments.

Data set [5] has as its system NFκB. The data set can be described thus: Western blot of NFκB in LPS-induced RAW264.7 cells. Type of data set: cell-based, murine. Particulars: LPS 1 μg/mL, 12 h; extract 5-100 μg/mL or SI 0.1-10 μM; dose-dependent manner. The protocol: as §1, §2, §3
Data set [6] deals with p-ERK. The data set can be described thus: Western blot of phosphorylated ERK in LPS-induced RAW264.7 cells. It is filed as cell-based, murine. Particulars: LPS 1 μg/mL, 12 h; extract 5-100 μg/mL or SI 0.1-10 μM; dose-dependent manner. The method, then: as §1, §2, §3
The subject of data set [7] is LPS-induced RAW264.7 cells. Kind of data set: Nitrite quantification of NO production in LPS-induced RAW264.7 cells. Type of data set: cell-based, murine. To be noted: LPS 1 μg/mL 12 h; extract 5, 20, 50, 100 μg/mL or SI 0.1, 1, 5, 10 μM; dose-dependent manner. The method, then:
as §1, §2
NO production from activated RAW 264.7 cells was determined by measuring the amount of nitrite, a stable oxidation product of NO. An aliquot of the conditioned medium was mixed with an equal volume of 1% sulfanilamide in water and 0.1% N-1-naphthylethylenediamine dihydrochloride in 5% phosphoric acid. The absorbance was determined at 550 nm. Sodium nitrite, diluted in culture media at concentrations of 10-100 μM, was used to generate a standard curve.

Take `C[C@H](CC[C@@H]1CC1(C)C)[C@H]1CC[C@@]2(C)C3CCC4C(C)(C)[C@H](O)CC[C@@]4(C)C3=CC[C@]12C` (stereo partly drawn) [sinetirucallol]: the “Cell viability (MTT assay)” value in data set [1] is on record as “not affected”. The “anti-inflammatory effect, low versus high dose” value in data set [2] (0.44 μg/kg SI compared with 4.4 μg/kg SI) was “better effect than that of 4.4 μg/kg SI”. For the same molecule, the “foot swelling recovery compared with 0.3 mg/kg triamcinolone” value in data set [2] (SI group (4.4, 2.2, 0.44 μg/kg i.p.)) is “less foot swelling recovery than that of 0.3 mg/kg triamcinolone”. For the same molecule, the “anti-inflammatory effect (swelling index of foot)” value in data set [2] (intraperitoneal injection 3 times Day 0 to Day 2, extract 0.5, 0.3, 0.06 mg/kg b.w, SI 4.4, 2.2, 0.44 μg/kg, compared with CFA group) was “much better than that of Spiranthes sinensis extract”. Moreover, in data set [3], the “inhibition of inflammatory cytokine transcription” value was “better inhibition”. The “LPS-induced expression of COX-2” value in data set [4] was “diminished”. Besides, in data set [5], the “LPS-induced expression of NFκB” value is on record as “diminished”. In addition, the “LPS-induced phosphorylation of ERK” value in data set [6] is recorded as “diminished”. In addition, the “NO production (nitrite)” value in data set [7] is “inhibitory effect”.
